Data: patent publication US9173876B2, “Preparation and therapeutic applications of (2S,3R)-N-2-((3-pyridinyl)methyl)-1-azabicyclo[2.2.2]oct-3-yl)-3,5-difluorobenzamide” (Targacept, Inc., priority 2009, dated 2015)

What was measured:
[1] = Aqueous solubility (salt screen); settings: target 10 mg/ml at 25° C. unbuffered
CD-1 mice = experiment: Formalin test; type: in vivo, mouse; settings: positive control, 5 mg/kg s.c.
Method: Subjects (adult male CD-1 mice (Charles River, Raleigh, N.C.) weighing approximately 20-25 grams) were removed from their home cage and weighed, then placed in a clear Plexiglas™ observation box for an acclimation period of 20-30 minutes. Mice were then removed from the observation chambers and (2S,3R)—N-2-((3-pyridinyl)methyl)-1-azabicyclo[2.2.2]oct-3-yl)-3,5-difluorobenzamide (as the hydrochloride salt in 0.9% saline) (1, 3 or 10 mg/kg s.c. (calculated with respect to the free base)), morphine (5 mg/kg; s.c.) or 0.9% saline vehicle was administered subcutaneously in a volume of 1 mL/kg. Mice were then returned to the chamber for the predetermined pretreatment time of 30 minutes for (2S,3R)—N-2-((3-pyridinyl)methyl)-1-azabicyclo[2.2.2]oct-3-yl)-3,5-difluorobenzamide and morphine.
The subject's assigned paw was grasped gently and formalin solution was injected into the paw intra-dermally in the middle on the dorsal side. Once injected, the subject was immediately returned to its observation chamber and a timer was started to mark the beginning of Phase I. Each subject was videotaped for the entire 40-minute session. […] The time spent licking during that 1 min interval was recorded, and the presence or absence of paw favoring was noted.
For data analyses, phase I of the test was defined as 0 to 5 minutes after formalin injection, and phase II was defined as 20 to 40 minutes after formalin injection. The time spent licking during the 1 minute intervals during those time frames was recorded and graphed as mean±S.E.M. For comparisons across treatment groups, 1-way analyses of variance (ANOVAs) were performed for each phase of the session with treatment as the […] variable. Post-hoc analyses were performed when appropriate to determine specific group differences.

Sprague-Dawley rats = experiment: Complete Freund's adjuvant (CFA)-induced thermal hyperalgesia; type: in vivo, rat; settings: reference standard, 3 mg/kg s.c., 1 hour after dosing
From the text: Briefly, adult male Sprague-Dawley rats (BioLasco, Taiwan) weighing 180±20 g on receipt were randomly assigned to treatment groups of n=8 per group. […] A subject was placed within a plastic box atop an elevated glass floor and a light beam located under the glass floor was directed at the plantar surface of the right hind paw. The time required for the animal to withdraw the paw from the thermal stimulus was automatically recorded. The intensity of the light was adjusted to evoke an average group baseline latency from 12-14 seconds (pre-CFA) and a cut-off latency of 20 seconds was imposed. The latency for paw withdrawal was obtained for each rat and defined as the heat pain threshold.
Test substance, morphine and vehicle were administered by subcutaneous (s.c.) injection at time 0. The post-treatment level of thermal hyperalgesia was then measured at 60 minutes post-treatment. One-way ANOVA followed by Dunnett's test was applied for comparison between test substance treated groups and vehicle control group. Activity was considered significant at the P<0.05 level.

[2] = cited from earlier work
[3] = system: STZ rat model of diabetic neuropathy; experiment: Streptozotocin (STZ)-induced diabetic neuropathy, Von Frey allodynia; type: in vivo; settings: 150 mg/kg i.p.
Method: Diabetes was induced by a 0.5 ml injection of streptozotocin (60 mg/kg) dissolved in citrate buffer (pH=6) into the tail vein of each rat. The development of diabetes was confirmed by measuring the blood glucose levels (BGL) of all animals on study day 3 (BGL>300 mg/dL). […] These animals were tested again for their BGL at study day 23.
(2S,3R)—N-2-((3-pyridinyl)methyl)-1-azabicyclo[2.2.2]oct-3-yl)-3,5-difluorobenzamide (0.1, 1 or 10 mg/kg p.o.) was administered as a solution of the hydrochloride salt in water once daily starting on study day 14 or study day 16 and continuing through study day 21 or 23, respectively. The control article gabapentin (in 0.9% saline, 150 mg/kg i.p.) was only administered on allodynia test days. Test item, vehicle or control article administration was based on evaluation of allodynia on study day 14. If allodynia was not present on study day 14, the animal was evaluated again at study day 16. Pain response was measured either on study days 14 and 21 or 16 and 23, 30 minutes after Test Item administration.
For the allodynia assessments, Von Frey filaments were used according to the methods of Chaplan and colleagues (1994). Briefly, the rats were placed in an enclosure and positioned on a metal mesh surface, but allowed to move freely. The rats' cabins were covered with red cellophane to diminish environmental distributions. The test began after cessation of exploratory behavior.
When the tip of a Von Frey fiber of given length and diameter was pressed against the skin at right angles, the force of application increases as long as the researcher continued to advance the probe until the fiber bent. After the fiber bent, the probe was advanced, causing the fiber to bend more, but without additional force being applied. The animal would indicate sensation by pulling back its paw. In the absence of a paw withdrawal response to the initially selected filament, a stronger stimulus was presented: in the event of paw withdrawal, the next weaker stimulus was chosen. In this fashion, the resulting pattern of positive and negative responses was used to determine the paw withdrawal threshold.
The set of Von Frey monofilaments provide an approximate logarithmic scale of actual force and a linear scale of perceived intensity. Below is a table showing the force (g) and its corresponding size of monofilaments.
All normally distributed data are presented as means±SEM, as well as the animals' individual values followed by a student T-test (Software: Microsoft® Excel). A p value<0.05 is considered to represent a significant difference. Due to the non-normal distribution of the allodynia data, descriptions of those data are provided as both mean (+SEM) and median values in order to represent their imprecise nature and skewed distribution.

db/db mouse = experiment: Murine model of type 2 diabetes mellitus (db/db mouse); type: in vivo; settings: MLA 3 mg/kg daily by gavage with 1.0 mg/kg test article
From the text: The db/db mouse, a well established model of type 2 diabetes mellitus, is a leptin-deficient mutant that expresses an obese phenotype and also commonly expresses metabolic symptoms including hyperglycemia, hyperlipidemia and hyperinsulinemia (Halaas et al., 1995 and Lee et al., 1996). This experimental animal model of diabetes was employed in a study designed to determine the effects of (2S,3R)—N-2-((3-pyridinyl)methyl)-1-azabicyclo[2.2.2]oct-3-yl)-3,5-difluorobenzamide on body mass and several additional metabolic parameters.
In this study, (2S,3R)—N-2-((3-pyridinyl)methyl)-1-azabicyclo[2.2.2]oct-3-yl)-3,5-difluorobenzamide was repeatedly administered orally (via gavage) at 1.0 mg/kg once daily starting from the age of approximately 3 weeks and continuing throughout the 7-week study. Nondiabetic heterozygote littermate mice (db/+; designated “Db”) were used as controls. Body weight and food intake were determined twice weekly. The α7 antagonist methyllycaconitine (MLA) was also given concurrently via gavage at 3 mg/kg daily to selected cohorts of db/db (designated “db”) or db/+mice. At the end of the 7-week dosing regimen, total growth rates (overall body weight gain) and average daily food intake were calculated. In addition, glucose levels were assessed in mice fasted overnight. Furthermore, blood sample analytes from mice fasted overnight were collected for measurements of tumor necrosis factor-a (TNF-α), triglycerides and glycosylated hemoglobin (HbA1c). All data are expressed as mean±SEM. For each parameter investigated, differences among all groups were compared by one-way ANOVA with post-hoc Neuman-Keuls multiple comparison test.

O=C(N[C@@H]1C2CCN(CC2)[C@H]1Cc1cccnc1)c1cc(F)cc(F)c1.O=P(O)(O)O [Phosphate mono salts]
Aqueous Solubility [1]: >10000 µg/mL

CN1CC[C@]23c4c5ccc(O)c4O[C@H]2[C@@H](O)C=C[C@H]3[C@H]1C5 [morphine, reference compound]
Time spent licking, phase I and phase II (CD-1 mice): efficacious in both phases of the test | Analgesic effect on CFA-induced thermal hyperalgesia (Sprague-Dawley rats): significant analgesic activity

O=S(=O)(O)c1ccccc1 [Benzene sulfonic acid]
LogP [2]: 0.47

O=C(N[C@@H]1C2CCN(CC2)[C@H]1Cc1cccnc1)c1cc(F)cc(F)c1.O=C(O)/C=C/C(=O)O [Fumarate mono salt]
Aqueous Solubility [1]: >10000 µg/mL

O=C(O)/C=C\C(=O)O [Maleic acid]
LogP [2]: −0.01

NCC1(CC(=O)O)CCCCC1 [gabapentin, reference compound]
Paw withdrawal force post treatment, median ([3]; study days 14/16): 60 g | Paw withdrawal force post treatment, mean±SEM ([3]; study days 14/16, pre treatment 22.77±3.77 g, vehicle 26.61±4.41 g): 45.62 ± 4.24 g | Paw withdrawal force post treatment, median ([3]; study days 21/23): 60 g | Paw withdrawal force post treatment, mean±SEM ([3]; study days 21/23, pre treatment 28.23±4.91 g, vehicle 20.46±3.31 g): 50.88 ± 4.12 g | Tactile allodynia (Von Frey) ([3]; positive control, all treatment days, vs pretreatment and vehicle, p<0.01): reversed the tactile allodynia significantly

O=C(O)[C@H](O)[C@@H](O)[C@H](O)[C@H](O)CO [D-Gluconic acid]
LogP [2]: −3.18

O=C(O)/C=C/C(=O)O [Fumaric acid]
LogP [2]: −0.01

Cc1ccc(S(=O)(=O)O)cc1 [p-Toluene sulfonic acid]
LogP [2]: 0.93

CCN1C[C@]2(COC(=O)c3ccccc3N3C(=O)C[C@H](C)C3=O)CC[C@H](OC)[C@@]34[C@@H]5C[C@H]6[C@H](OC)[C@@H]5[C@](O)(C[C@@H]6OC)[C@@](O)([C@@H](OC)[C@H]23)[C@@H]14 [MLA, methyllycaconitine, reference compound]
Weight gain on co-administration of MLA with the difluorobenzamide (db/db mouse; FIG. 15): failed to show the reduced weight gain | Daily average food consumption on co-administration of MLA with the difluorobenzamide (db/db mouse; FIG. 16): failed to show the reduced daily average food consumption | Reversal of the fasting plasma glucose effect by co-administration of MLA (db/db mouse; FIG. 17): not reversed | Effect of MLA co-administration on the reduction in glycosylated HbA1c (db/db mouse; FIG. 18): attenuated | Effect of MLA co-administration on the TNF alpha reduction (db/db mouse; FIG. 19): inhibited | Effect of MLA co-administration on the reduction in triglycerides (db/db mouse; FIG. 20): not attenuated

CCC(=O)O [Propionic acid]
LogP [2]: 0.25

O=C(O)CNC(=O)c1ccccc1 [Hippuric acid]
LogP [2]: 0.31

O=C(O)c1ccc2ccccc2c1O [1-Hydroxy-2-Naphthoic acid]
LogP [2]: 3.29

N[C@@H](CC(=O)O)C(=O)O [L-Aspartic acid]
LogP [2]: −0.67

Cl.O=C(N[C@@H]1C2CCN(CC2)[C@H]1Cc1cccnc1)c1cc(F)cc(F)c1 [Hydrochloride mono salts]
Aqueous Solubility [1]: >10000 µg/mL
